Results on one compound are retold here after PMC4345494, “Cheaper faster drug development validated by the repositioning of drugs against neglected tropical diseases” (Journal of the Royal Society Interface, 2015).

This test deals with P. vivax DHFR (dihydrofolate reductase) (Plasmodium vivax, UniProt O02604). Put plainly: DHFR enzyme inhibition assay (supported by growth assay of yeast expressing PvDHFR). It counts as biochemical.

Each structure is given as a SMILES string.

Sequence of P. vivax DHFR (dihydrofolate reductase) (O02604 1-237): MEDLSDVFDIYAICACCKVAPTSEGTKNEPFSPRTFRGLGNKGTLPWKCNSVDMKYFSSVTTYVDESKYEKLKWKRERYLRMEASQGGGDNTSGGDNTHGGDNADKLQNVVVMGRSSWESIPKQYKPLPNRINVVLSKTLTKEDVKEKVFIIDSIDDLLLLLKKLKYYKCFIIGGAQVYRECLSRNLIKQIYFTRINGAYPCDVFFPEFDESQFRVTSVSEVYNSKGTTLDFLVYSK

As usually defined, the IC50 is the concentration needed to halve the response being measured. A lower IC50 goes with higher potency. For the compound `CO[C@@H]1[C@H](OC(=O)NC(=O)CCl)CC[C@]2(CO2)[C@H]1[C@@]1(C)O[C@@H]1CC=C(C)C` [TNP-470], half-maximal inhibition (IC50) required 0.16 µM.
